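Test compounds were applied to cells in 96-well plates for 48 hours at 5 doses. The concentration for full growth arrest is given as TGI.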 Where only a bound is given, the exact number is not on record here.

Assay in all cases: NCI tumour cell line growth inhibition, 48 h
The subject of test [1] is ACHN renal.
Test [2] concerns M14 melanoma.
Test [3] has as its system MCF7 breast.
In test [4] the test system is MDA-MB-231 breast.
The subject of test [5] is OVCAR-3 ovarian.
The test system of test [6] is OVCAR-5 ovarian.
For test [7], the system named is PC-3 prostate.
In test [8] the test system is RPMI-8226 leukemia.
Test [9] deals with SK-MEL-28 melanoma.
Test [10] relates to SNB-19 CNS.
Test [11] deals with SW-620 colon.
The test system of test [12] is U251 CNS.

With `Cc1cccc(NC(=S)N/N=C(/c2ccccc2)c2ccccn2)c1`, the TGI in [1] was 11.8 µM; in [2], 2.58 µM; in test [3], 0.663 µM; in [4] it was 6.73 µM; in test [5] it was 11.9 µM; in [6] it was 8.68 µM. In addition, the TGI in test [7] is 18.3 µM; in [8] it was over 7.74 µM; in test [9] it was 40.5 µM; in [10], 20 µM; in [11] it was 20.4 µM; in test [12] it was 12.5 µM.

`CCN(CC)C1=Nc2ccccc2-n2c(C)cnc2C1`: the TGI in test [1], in test [2], in test [3], in [4], in [5] and in [6] was over 100 µM in each case. Also, the TGI in [7], in test [8], in [9], in test [10], in test [11] and in test [12] was over 100 µM in each case.

Take `CCOP(C)(=O)C(Nc1ccc(F)cc1)c1ccc(F)cc1` (centres undefined): the TGI in test [1], in test [2], in [4], in test [5], in test [6] and in test [7] was over 100 µM in each case. The TGI in test [8], in test [9], in test [10], in test [11] and in [12] was over 100 µM each time.

Regarding `Cc1nc2c(ncn2CCO)c(=O)[nH]1`, the TGI in test [1], in test [2], in [3], in [4], in [5] and in [6] was over 100 µM throughout. In addition, the TGI in test [7], in test [9], in [10], in [11] and in [12] was over 100 µM in each case.

For `O=C1NN(c2ccccc2)C(=O)C2C3c4ccccc4C(c4ccccc43)C12` (centres undefined), the TGI in test [1], in test [2], in test [3], in [4], in [5] and in [7] was over 100 µM throughout. Further, the TGI in test [8], in test [9], in test [10], in [11] and in [12] was over 100 µM in each case.

With `Cc1nc(C)c(N2CCN(C#N)CC2)c(=O)[nH]1`, the TGI in test [1], in test [2], in test [3], in test [4], in [5] and in [7] was over 100 µM each time. The TGI in test [8], in [9], in test [10], in test [11] and in [12] was over 100 µM throughout.

In the case of `COc1cccc(-n2c(N)c(-c3nc4cc(C(F)(F)F)ccc4s3)c3ccc([N+](=O)[O-])cc3c2=O)c1`, the TGI in test [1], in [2], in [3], in test [4], in test [5] and in test [6] was over 100 µM throughout. Also, the TGI in test [7], in test [8], in [9], in test [10] and in test [12] was over 100 µM throughout.

For `CP(C)(=S)P(C)(C)=S`, the TGI in [1], in [2], in [3], in test [4], in [6] and in test [7] was over 100 µM in each case. Moreover, the TGI in test [8], in [9], in test [10], in test [11] and in test [12] was over 100 µM in each case.

In the case of `CN1CCN(c2ccc(-n3cc(C(=O)O)c(=O)c4cc(F)c(N5CCN(C)CC5)cc43)nc2)CC1`, the TGI in test [2], in test [3], in test [4], in test [5], in test [6] and in [7] was over 100 µM in each case. For the same compound, the TGI in test [8], in test [9], in [10], in test [11] and in [12] was over 100 µM throughout.

As for `COC(=O)CCC(=O)c1ccc2c(c1)CC1(C2)Cc2ccc3c(c2C1)CCCC3=O` (centres undefined), the TGI in [1] was over 70.2 µM; in test [2], over 57 µM; in test [3], 69.9 µM; in test [4], over 100 µM; in test [5], 47.7 µM; in test [6], over 100 µM. The TGI in test [7] is over 79.9 µM; in test [9] it was over 100 µM; in [10], over 100 µM; in [11] it was over 100 µM; in test [12] it was over 100 µM.

For `S=C1SC(c2ccc(Cl)cc2)(c2ccc(Cl)cc2)c2ccccc21`, the TGI in test [1], in test [2], in test [3], in test [4], in [5] and in test [6] was over 100 µM each time. Also, the TGI in test [7], in test [9], in test [10], in [11] and in test [12] was over 100 µM in each case.

Regarding `CN(C)/C=N/S(=O)(=O)c1nn2c(C=O)c(-c3ccc(-c4ccc([N+](=O)[O-])cc4)o3)nc2s1`, the TGI in test [1] was 8.99 µM; in test [3], over 32.6 µM; in test [4] it was 20 µM; in test [5] it was 8.41 µM; in [6], over 30.5 µM; in test [7] it was 14.3 µM. Also, the TGI was 13.5 µM in [8]; 6.22 µM in test [9]; 45.5 µM in test [10]; over 23.5 µM in test [11]; over 30.2 µM in test [12].

Source of the values: PubChem BioAssay (NCI).
